# Laboratory results taken from patent US10624880B2, “Predicting response to alvocidib by mitochondrial profiling” (Tolero Pharmaceuticals, Inc., priority 2015, dated 2020).
# Key:
# [1] = test system: MCL-1, Bcl-xL, and Bcl-2 in Panc-1 cells; experiment: Immunoblotting of MCL-1, Bcl-xL, Bcl-2 in Panc-1 cells; format: cell-based, human; details: Panc-1, 730 nM
# Procedure: The time dependence is observed by monitoring the relative expression of MCL-1, Bcl-xL, and Bcl-2 compared β-actin over time. The relative expression of MCL-1, Bcl-xL, and Bcl-2 was measured at 0-96 hour time points after dosing with 730 nM of alvocidib. In one group, after 24 hours of treatment, media was removed and replaced with fresh media containing 730 nM alvocidib (i.e., a wash step; see FIG. 13A). Panc-1 cells were treated with 730 nM alvocidib in vitro for the times indicated in FIG. 13A-B. Following treatment (and wash step as applicable), cells were harvested and prepared using standard immunoblotting techniques for detection of MCL-1, Bcl-xL, and Bcl-2 expression. […] The time dependence is observed by monitoring the relative expression of MCL-1, Bcl-xL, and Bcl-2 compared β-actin over time. The relative expression of MCL-1, Bcl-xL, and Bcl-2 was measured at 0-96 hour time points after dosing with 730 nM of alvocidib. Cells were treated 3 times (three 24 hour periods, broken by two 24 hour breaks) with 730 nM alvocidib in vitro. Following treatment, cells were harvested and prepared using standard immunoblotting techniques for detection of MCL-1, Bcl-xL, and Bcl-2 expression.
# [2] = test system: MCL-1, Bcl-xL, and Bcl-2 in Yugen8 cells; experiment: Immunoblotting of MCL-1, Bcl-xL, Bcl-2 in Yugen8 cells; format: cell-based; details: Yugen8, 280 nM
# Procedure: The time dependence is observed by monitoring the relative expression of MCL-1, Bcl-xL, and Bcl-2 compared β-actin over time. The relative expression of MCL-1, Bcl-xL, and Bcl-2 was measured at 0-96 hour time points after dosing with 280 nM of alvocidib. In one group, after 24 hours of treatment, media was removed and replaced with fresh media containing 280 nM alvocidib (i.e., a wash step; see FIG. 15A). Yugen8 cells were treated with 280 nM alvocidib in vitro for the times indicated in FIG. 15A-B. Following treatment (and wash step as applicable), cells were harvested and prepared using standard immunoblotting techniques for detection of MCL-1, Bcl-xL, and Bcl-2 expression. […] The time dependence is observed by monitoring the relative expression of MCL-1, Bcl-xL, and Bcl-2 compared β-actin over time. The relative expression of MCL-1, Bcl-xL, and Bcl-2 was measured at 0-96 hour time points after dosing with 280 nM of alvocidib. Cells were treated 3 times (three 24 hour periods, broken by two 24 hour breaks) with 280 nM alvocidib in vitro. Following treatment, cells were harvested and prepared using standard immunoblotting techniques for detection of MCL-1, Bcl-xL, and Bcl-2 expression.
# [3] = test system: MCL-1, Bcl-xL, and Bcl-2 in MV-4-11 cells; experiment: Immunoblotting of MCL-1, Bcl-xL, Bcl-2 in MV-4-11 cells; format: cell-based
# Procedure: The dose dependence is observed by monitoring the relative expression of MCL-1 compared to β-actin when cells are dosed with alvocidib at concentrations of 0-8 μM. MV4-11 cells were treated with alvocidib for 2 hrs in vitro. Following treatment, cells were harvested and prepared using standard immunoblotting techniques for detection of MCL-1 to probe for changes relative to β-actin.
# The time dependence is observed by monitoring the relative expression of MCL-1, Bcl-xL, and Bcl-2 compared β-actin over time. The relative expression of MCL-1, Bcl-xL, and Bcl-2 was measured at 1-96 hour time points after dosing with 80 nM of alvocidib.
# Following treatment, cells were harvested and prepared using standard immunoblotting techniques for detection of MCL-1, Bcl-xL, and Bcl-2 expression.
# MCL-1 mRNA in A549 cells = experiment: RT-PCR of MCL-1 mRNA in A549 cells; format: cell-based, human; details: A549, alvocidib 0-8 μM, 2 hrs, FIG. 8
# Procedure: The A549 cell line is a human adenocarcinoma cell line, which expresses MCL-1. […] A549 cells were treated with alvocidib for 2 hrs in vitro. Following treatment, cells were harvested and prepared using a standard RT-PCR assay for detection of MCL-1 mRNA to probe for changes relative to controls.
# [4] = test system: MCL-1 mRNA in MV-4-11 cells; experiment: RT-PCR of MCL-1 mRNA in MV-4-11 cells; format: cell-based
# Procedure: An AML cell line, MV-4-11, expresses MCL-1. MCL-1 is a key anti-apoptotic protein in MV-4-11 cells. Alvocidib, a CDK9 inhibitor, lowers the expression of MCL-1 mRNA, which is already well documented in the literature. […] MV-4-11 cells were treated with alvocidib for 2 hrs in vitro. Following treatment, cells were harvested and prepared using a standard real time PCR (RT-PCR) assay for detection of MCL-1 mRNA to probe for changes relative to controls.
# The relative expression of MCL-1 mRNA was measured at 0.5-16 hour time points after dosing with 100 nM of alvocidib.
# Following treatment, cells were harvested and prepared using standard RT-PCR assay for detection of MCL-1 mRNA expression.
# N-Myc in SK-N-AS cells = experiment: Immunoblotting of N-Myc in SK-N-AS cells; format: cell-based, human; details: 300 nM, 1-24 hour, FIG. 11
# Procedure: The SK-N-AS cell line is a human neuroblastoma cell line that expresses N-Myc, which is a key oncogenic protein. […] The time dependence is observed by monitoring the relative expression of N-Myc compared β-actin over time. The relative expression of N-Myc was measured at 1-24 hour time points after dosing with 300 nM of alvocidib.
# Following treatment, cells were harvested and prepared using standard immunoblotting techniques for detection of N-Myc expression.
# MCL-1 in MV-4-11 cells = experiment: MCL-1 immunoblotting in the ACM (or FLAM) regimen modeled in vitro; format: cell-based
# Excerpt: (§1) Following the treatment, cells were harvested and prepared using standard immunoblotting techniques for detection of MCL-1.
# [5] = test system: MCL-1, Bcl-xL, and Bcl-2 in A549 cells; experiment: Immunoblotting of MCL-1, Bcl-xL, Bcl-2 in A549 cells; format: cell-based, human; details: A549, 350 nM
# Procedure: The relative expression of MCL-1, Bcl-xL, and Bcl-2 was measured at 0-96 hour time points after dosing with 350 nM of alvocidib. In one group, after 24 hours of treatment, media was removed and replaced with fresh media […] (i.e., a wash step; see FIG. 9A).
# A549 cells were treated with 350 nM alvocidib in vitro for the times indicated in FIG. 9A-B. Following treatment (and wash step as applicable), cells were harvested and prepared using standard immunoblotting techniques for detection of MCL-1, Bcl-xL, and Bcl-2 expression.
# The relative expression of MCL-1, Bcl-xL, and Bcl-2 was measured at 0-96 hour time points after dosing with 350 nM of alvocidib.
# Cells were treated 3 times (three 24 hour periods, broken by two 24 hour breaks) with 350 nM alvocidib in vitro. Following treatment, cells were harvested and prepared using standard immunoblotting techniques for detection of MCL-1, Bcl-xL, and Bcl-2 expression.
# MV-4-11 cells = experiment: 24 hour EC50 in MV-4-11 cells; format: cell-based; details: Homo sapiens, MV4-11, read-out: 24 hour EC 50
# Excerpt: as §1
SMILES,"relative expression of MCL-1, Bcl-xL, and Bcl-2 compared β-actin over time ([1]; 0-96 hour, with and without wash step, FIG. 13A-B)","relative expression of MCL-1, Bcl-xL, and Bcl-2 compared β-actin over time ([1]; repeat dosing regimen, FIG. 14)","relative expression of MCL-1, Bcl-xL, and Bcl-2 compared β-actin over time ([2]; 0-96 hour, with and without wash step, FIG. 15A-B)","relative expression of MCL-1, Bcl-xL, and Bcl-2 compared β-actin over time ([2]; repeat dosing regimen, FIG. 16)","relative expression of MCL-1, Bcl-xL, and Bcl-2 compared β-actin over time ([3]; MV-4-11, 80 nM, 1-96 hour, FIG. 10B)","relative expression of MCL-1 compared to β-actin ([3]; MV-4-11, alvocidib 0-8 μM, 2 hrs, FIG. 10A)",relative expression of MCL-1 mRNA compared to controls (MCL-1 mRNA in A549 cells),"time post-treatment at which MCL-1 mRNA expression was reduced ([4]; MV-4-11, 100 nM) [min]","relative expression of MCL-1 mRNA compared controls over time ([4]; MV-4-11, 100 nM, 0.5-16 hour, FIG. 7B)","relative expression of MCL-1 mRNA compared to controls ([4]; MV-4-11, alvocidib 0-8 μM, 2 hrs, FIG. 7A)",relative expression of N-Myc compared β-actin over time (N-Myc in SK-N-AS cells),"relative expression of MCL-1 compared to β-actin (MCL-1 in MV-4-11 cells; MV-4-11, each treatment dosed at its 24 hour EC50, FIG. 17B)","expression of MCL-1 over the course of the ACM (or FLAM) regimen (MCL-1 in MV-4-11 cells; modeled in vitro, MV-4-11, FIG. 17A)","relative expression of MCL-1, Bcl-xL, and Bcl-2 compared β-actin over time ([5]; 0-96 hour, with and without wash step, FIG. 9A-B)","relative expression of MCL-1, Bcl-xL, and Bcl-2 compared β-actin over time ([5]; repeat dosing (three 24 hour periods, two 24 hour breaks), FIG. 12)",EC50 (MV-4-11 cells) [nM]
CN1CC[C@H](c2c(O)cc(O)c3c(=O)cc(-c4ccccc4Cl)oc23)[C@H](O)C1 [alvocidib],down-regulates MCL-1 in Panc-1 cells in a time dependent manner,down-regulates MCL-1 in Panc-1 cells in a time-dependent manner,down-regulates MCL-1 in Yugen8 cells in a time dependent manner,down-regulates MCL-1 in Yugen8 in a time-dependent manner,down-regulates MCL-1 in MV-4-11 in a time-dependent manner,down-regulates MCL-1 in MV-4-11 cells in a dose dependent manner,down-regulates MCL-1 mRNA in A549 cells in a dose dependent manner,≤ 30,down-regulates MCL-1 mRNA in MV-4-11 in a time-dependent manner,down-regulates MCL-1 mRNA in MV-4-11 cells in a dose dependent manner,down-regulates N-Myc in SK-N-AS cells in a time-dependent manner,lower the expression of MCL-1,"represses super enhancer complex regulated genes, including expression of MCL-1",down-regulates MCL-1 in A549 in a time-dependent manner,down-regulates MCL-1 in A549 cells in a time-dependent manner,80
CC(=O)c1c(C)c2cnc(Nc3ccc(N4CCNCC4)cn3)nc2n(C2CCCC2)c1=O [palbociclib],,,,,,,,,,,,,,,,1000
